Results reported in patent US20260008760A1, “DIPEPTIDYL PEPTIDASE 1 INHIBITORS AND USES THEREOF” (Insmed Incorporated, priority 2024, published 2026).

Tests used:
DPP1 in HL-60 cells = DPP1 in HL-60 cells (Homo sapiens, UniProt P53634); test: DPP1 Cell Single-Point Percent Inhibition Testing; assay type: cell-based; design: host or cells: HL-60 cells; settings: final compound concentration 5 nM, n = 1
Method: Example 100. DPP1 Cell Single-Point Percent Inhibition Testing
HL-60 cells (ATCC; Manassas, VA) were maintained in RPMI-1640 supplemented with 20% heat-inactivated FBS and 1× Antibiotic Antimycotic (Cytiva; Marlborough, MA). Media was changed every three to four days and cells were not allowed to exceed 1×10^6 cells per mL. Prior to assay, cells were collected by centrifugation at 500 rcf for 3 minutes, resuspended in RPMI (with no additional supplements) and counted. Cells were diluted in RPMI to a concentration of 5×10^5 live cells per mL and transferred to black 96-well plates for assay, 60 μL per well. Test articles were diluted to 25 nM in RPMI plus 0.5% DMSO, and 20 μL was added to each assay well. Compound was allowed to pre-incubate with cells with gentle shaking at 100 rpm for 60 minutes at 37° C. in a cell culture incubator maintained at 5% CO2, after which 20 μL of 500 μM H-Gly-Phe-AFC cell-permeable substrate (MP Biomedicals; Solon, OH) in RPMI was added to each well, giving final compound concentration of 5 nM, a final substrate concentration of 100 μM and a final DMSO concentration of 0.1%. Plates were returned to the incubator with shaking at 100 rpm for 30 minutes, after which fluorescence was measured at Excitation/Emission 400/505 nm. Percent Inhibition was calculated from RFU values by first subtracting background values (wells in which RPMI was substituted for cells) from each well, and then subtracting background-subtracted RFU derived from wells that received a final concentration of 10 μM brensocatib. This value represents the non-specific substrate cleavage from the HL-60 cells, and the remaining RFU should theoretically be solely the contribution of DPP1 enzyme activity. The final percent inhibition value was calculated for each test article based on remaining RFU compared to RFU from wells that received only vehicle control.

human DPP1 enzyme = human DPP1 enzyme (Homo sapiens, UniProt P53634); test: Human DPP1 Enzyme Single-Point Percent Inhibition Testing (HL-60 lysate); assay type: biochemical; design: A crude lysate of HL-60 cells (ATCC; Manassas, VA) was used as a source of human DPP1 enzyme; host or cells: HL-60 cells (crude lysate); settings: final compound concentration of 10 nM, 400 μM H-Gly-Arg-AMC, n = 1
Method: Example 98. Human DPP1 Enzyme Single-Point Percent Inhibition Testing
A crude lysate of HL-60 cells (ATCC; Manassas, VA) was used as a source of human DPP1 enzyme in the assay. Lysate was prepared in 1% Triton X-100 in PBS at a concentration of 20,000 live cells per μL of lysis buffer and was centrifuged at 16,000 rcf for 10 minutes at 4° C., after which supernatant was collected and flash-frozen in liquid nitrogen. Test articles were applied to human DPP1 enzyme in Assay Buffer (25 mM MES pH 6.0, 50 mM NaCl, 5 mM DTT) in a total reaction volume of 125 μL. 25 μL of compound diluted to 50 nM in Assay Buffer plus 5% DMSO was first added to 50 μL of HL-60 lysate diluted to contain a DPP1 enzyme concentration of roughly 1 ng/μL and allowed to pre-incubate for 10 minutes at 37° C. after which 50 μL of 1000 μM H-Gly-Arg-AMC substrate (Bachem; St. Torrance, CA) was added, giving final compound concentration of 10 nM, a final substrate concentration of 400 μM and a final DMSO concentration of 1%. Substrate cleavage was measured for 90 minutes at 37° C., with fluorescence at Excitation/Emission 350/450 nm measured every 5 minutes. DPP1 concentration was interpolated based on its activity relative to a standard curve of activated human recombinant DPP1 enzyme. Percent inhibition at 10 nM was calculated for each test article based on remaining DPP1 activity compared to enzyme activity in wells that received only vehicle control.

DPP1 in HL-60 cells, sequence (P53634 25-463): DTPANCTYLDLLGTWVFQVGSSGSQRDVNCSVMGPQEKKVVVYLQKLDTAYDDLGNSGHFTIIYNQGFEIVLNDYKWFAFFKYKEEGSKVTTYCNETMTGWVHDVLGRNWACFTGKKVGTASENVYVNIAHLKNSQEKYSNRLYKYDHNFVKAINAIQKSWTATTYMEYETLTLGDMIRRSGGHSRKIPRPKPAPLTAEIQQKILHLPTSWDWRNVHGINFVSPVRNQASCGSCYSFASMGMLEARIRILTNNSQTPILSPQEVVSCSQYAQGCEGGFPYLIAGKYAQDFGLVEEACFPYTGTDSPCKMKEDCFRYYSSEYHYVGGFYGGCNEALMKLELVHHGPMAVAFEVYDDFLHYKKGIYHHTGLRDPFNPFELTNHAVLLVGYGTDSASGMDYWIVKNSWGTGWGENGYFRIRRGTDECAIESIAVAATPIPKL
human DPP1 enzyme, sequence (P53634 25-463): as above

Compound	inhibition at 0.005 µM (DPP1 in HL-60 cells)	inhibition at 0.01 µM (human DPP1 enzyme)
CN1CCCC2(C1)C(=O)N(C)c1ccc(-c3ccc(C[C@@H](C#N)NC(=O)[C@@H]4CNCCCCO4)cc3)cc12 (stereo partly drawn) [Compound 36]	≤ 76.5%	≤ 40%
CN1CC2(C1)OC(=O)c1ccc(-c3ccc(C[C@@H](C#N)NC(=O)[C@@H]4CNCCCCO4)cc3)cc12 [Compound 37]	≤ 76.5%	≤ 40%
CN1CCC2(C1)OC(=O)c1ccc(-c3ccc(C[C@@H](C#N)NC(=O)[C@@H]4CNCCCCO4)cc3)cc12 (stereo partly drawn) [Compound 38]	≤ 76.5%	≤ 40%
N#C[C@H](Cc1ccc(-c2ccc3c(c2)C2(CCN(C4COC4)CC2)OC3)cc1)NC(=O)[C@@H]1CNCCCCO1 [Compound 39]	≤ 76.5%	≤ 40%
CN1CCN(Cc2ccc(-c3ccc(C[C@@H](C#N)NC(=O)[C@@H]4CNCCCCO4)cc3)cc2)CC1 [Compound 40]	≤ 76.5%	≤ 40%
CN1CCCC2(C1)C(=O)N(C)c1ccc(-c3ccc(C[C@@H](C#N)NC(=O)[C@@H]4CNCCCCO4)c(F)c3)cc12 (stereo partly drawn) [Compound 41]	≤ 76.5%	40 to 66.7%
CN1CC2(C1)OC(=O)c1ccc(-c3ccc(C[C@@H](C#N)NC(=O)[C@@H]4CNCCCCO4)c(F)c3)cc12 [Compound 42]	≤ 76.5%	40 to 66.7%
CN1CCC2(C1)OC(=O)c1ccc(-c3ccc(C[C@@H](C#N)NC(=O)[C@@H]4CNCCCCO4)c(F)c3)cc12 (stereo partly drawn) [Compound 43]	≤ 76.5%	40 to 66.7%
N#C[C@H](Cc1ccc(-c2ccc3c(c2)C2(CCN(C4CCC4)CC2)OC3)cc1F)NC(=O)[C@@H]1CNCCCCO1 [Compound 44]	≤ 76.5%	40 to 66.7%
CN1CCN(Cc2ccc(-c3ccc(C[C@@H](C#N)NC(=O)[C@@H]4CNCCCCO4)c(F)c3)cc2)CC1 [Compound 45]	≤ 76.5%	≤ 40%
N#C[C@H](Cc1ccc(-c2ccc(S(=O)(=O)N3CCC3)cc2)cc1)NC(=O)[C@@H]1CNCCCCO1 [Compound 46]	≤ 76.5%	≤ 40%
N#C[C@H](Cc1ccc(-c2ccc(S(=O)(=O)N3CCC3)cc2)cc1F)NC(=O)[C@@H]1CNCCCCO1 [Compound 47]	≤ 76.5%	≤ 40%
CN1CCCC2(C1)C(=O)N(C)c1ccc(-c3ccc(C[C@@H](C#N)NC(=O)[C@@H]4CNCCCO4)c(F)c3)cc12 (stereo partly drawn) [Compound 48]	≤ 76.5%	40 to 66.7%
N#C[C@H](Cc1ccc(-c2ccc(S(=O)(=O)N3CCC3)cc2)cc1F)NC(=O)[C@@H]1CNCCCO1 [Compound 49]	≤ 76.5%	≤ 40%

Other lines, results leading:

inhibition at 0.005 µM (DPP1 in HL-60 cells)	inhibition at 0.01 µM (human DPP1 enzyme)	Compound
76.5 to 93.9%	≥ 66.7%	CO[C@@H]1CCNC[C@@H](C(=O)N[C@H](C#N)Cc2ccc(-c3cc4c(C)nc(C)cn4c3)cc2)OC1 [Compound A80]
≤ 76.5%	40 to 66.7%	CO[C@@H]1CCNC[C@@H](C(=O)N[C@H](C#N)Cc2ccc(-c3ccc4c(n3)CCCN4)cc2)OC1 [Compound A81]
76.5 to 93.9%	≥ 66.7%	CO[C@@H]1CCNC[C@@H](C(=O)N[C@H](C#N)Cc2ccc(-c3cc4c(C)nc(C)cn4c3)cc2F)OC1 [Compound A82]
76.5 to 93.9%	≥ 66.7%	CO[C@@H]1CCNC[C@@H](C(=O)N[C@H](C#N)Cc2ccc(-c3ccc4c(n3)CCCN4)cc2F)OC1 [Compound A83]
≤ 76.5%	40 to 66.7%	CO[C@@H]1CCNC[C@@H](C(=O)N[C@H](C#N)Cc2ccc(-c3cnc4c(n3)CCCC4)cc2)OC1 [Compound A84]
≤ 76.5%	≥ 66.7%	CO[C@@H]1CCNC[C@@H](C(=O)N[C@H](C#N)Cc2ccc(-c3cnc4c(n3)CCCC4)cc2F)OC1 [Compound A85]
≤ 76.5%	40 to 66.7%	COC1CNC[C@@H](C(=O)N[C@H](C#N)Cc2ccc(-c3cc4c(C)nc(C)cn4c3)cc2)OC1 (stereo partly drawn) [Compound A86]
76.5 to 93.9%	≥ 66.7%	COC1CNC[C@@H](C(=O)N[C@H](C#N)Cc2ccc(-c3ccc4c(n3)CCCN4)cc2)OC1 (stereo partly drawn) [Compound A87]
≤ 76.5%	≥ 66.7%	COC1CNC[C@@H](C(=O)N[C@H](C#N)Cc2ccc(-c3cnc4c(n3)CCCC4)cc2)OC1 (stereo partly drawn) [Compound A90]
≤ 76.5%	≥ 66.7%	COC1CNC[C@@H](C(=O)N[C@H](C#N)Cc2ccc(-c3cnc4c(n3)CCCC4)cc2F)OC1 (stereo partly drawn) [Compound A91]
≤ 76.5%	≤ 40%	CO[C@H]1CCO[C@H](C(=O)N[C@H](C#N)Cc2ccc(-c3ccc4c(n3)CCCN4)cc2)CNC1 [Compound A93]
≤ 76.5%	≤ 40%	CO[C@H]1CCO[C@H](C(=O)N[C@H](C#N)Cc2ccc(-c3cc4c(C)nc(C)cn4c3)cc2F)CNC1 [Compound A94]
≤ 76.5%	40 to 66.7%	CO[C@H]1CCO[C@H](C(=O)N[C@H](C#N)Cc2ccc(-c3ccc4c(n3)CCCN4)cc2F)CNC1 [Compound A95]
≤ 76.5%	40 to 66.7%	CO[C@H]1CCO[C@H](C(=O)N[C@H](C#N)Cc2ccc(-c3cnc4c(n3)CCCC4)cc2)CNC1 [Compound A96]
≤ 76.5%	40 to 66.7%	CO[C@H]1CCO[C@H](C(=O)N[C@H](C#N)Cc2ccc(-c3cnc4c(n3)CCCC4)cc2F)CNC1 [Compound A97]
≤ 76.5%	≥ 66.7%	Cc1cn2cc(-c3ccc(C[C@@H](C#N)NC(=O)[C@@H]4CN[C@@H](C)[C@H](O)CO4)cc3)cc2c(C)n1 [Compound A98]
76.5 to 93.9%	≥ 66.7%	C[C@@H]1NC[C@@H](C(=O)N[C@H](C#N)Cc2ccc(-c3ccc4c(n3)CCCN4)cc2F)OC[C@H]1O [Compound A101]
≤ 76.5%	≤ 40%	Cc1cn2cc(-c3ccc(C[C@@H](C#N)NC(=O)[C@@H]4CN[C@@H](C)[C@@H](O)CO4)cc3)cc2c(C)n1 [Compound A104]
≤ 76.5%	≤ 40%	Cc1cn2cc(-c3ccc(C[C@@H](C#N)NC(=O)[C@@H]4CN[C@@H](C)[C@@H](O)CO4)c(F)c3)cc2c(C)n1 [Compound A106]
≤ 76.5%	≤ 40%	C[C@@H]1NC[C@@H](C(=O)N[C@H](C#N)Cc2ccc(-c3ccc4c(n3)CCCN4)cc2F)OC[C@@H]1O [Compound A107]
≤ 76.5%	≤ 40%	C[C@@H]1NC[C@@H](C(=O)N[C@H](C#N)Cc2ccc(-c3cnc4c(n3)CCCC4)cc2)OC[C@@H]1O [Compound A108]
≤ 76.5%	≤ 40%	N#C[C@H](Cc1ccc(-c2ccc3c(n2)CCCN3)cc1)NC(=O)[C@@H]1CNCCCCO1 [Compound A111]
≤ 76.5%	≤ 40%	N#C[C@H](Cc1ccc(-c2cnc3c(n2)CCCC3)cc1)NC(=O)[C@@H]1CNCCCCO1 [Compound A114]
≤ 76.5%	≤ 40%	N#C[C@H](Cc1ccc(-c2cnc3c(n2)CCCC3)cc1F)NC(=O)[C@@H]1CNCCCCO1 [Compound A115]
≤ 76.5%	≤ 40%	Cc1cn2cc(-c3ccc(C[C@@H](C#N)NC(=O)[C@@H]4CNCCCO4)cc3)cc2c(C)n1 [Compound A116]
